Patent publication US20220142985A1, “AGENTS FOR TREATMENT OF ALCOHOL USE DISORDER” (SERVICIO ANDALUZ DE SALUD, priority 2018, published 2022)
Blank lines part the entries; values can stand above or below the compound they belong to.

Columns and labels:
[1] = system: adult male Wistar rats; assay: Alcohol self-administration model; type: in vivo, rat; details: for EC50 for inhibition of alcohol self-administration: acute administration 30 minutes before the session, 10% alcohol, non-linear regression, IC = confidence interval
Description: (§1) For the alcohol self-administration studies, 48 adult male Wistar rats (8 per group) (Harlan, Barcelona, Spain) weighing 375-425 g at the start of the experiments were individually housed in a 12-hour light/dark cycle (turned off at 12:00 p.m.) in a room at constant temperature (23±1° C.). Standard food and tap water were available ad libitum in the house cage. The animals were allowed to acclimate to the housing facilities for 2 weeks before the beginning of the alcohol self-administration protocol. For oxycodone self-administration, male Long-Evans rats (275-325 g) (Charles-River Laboratories, Raleigh, N.C.) were used throughout this study. Upon arrival, they were individually housed in a facility for animals under an inverted 12-h light/dark cycle (light turned on at 7:00 p.m.) with free access to food and water. They were allowed to acclimate to the new environment for at least 7 days before the start of the study. For alcohol consumption in the two-bottle choice paradigm, male Wistar rats weighing 250 g at the start of the experiments, or genetically selected Marchigian Sardinian (msP) male rats that prefer alcohol were used.
Animals were trained for the alcohol self-administration as previously described (Cippitelli et al., 2005. Eur J Neurosci. 21 (8):2243-51), in the room (Letica, model LE 850, Panlab, Barcelona, Spain) enclosed in sound-attenuating cages and equipped with an exhaust fan. The chambers were equipped with two retractable levers, one located on each side of a water pan.
The active lever side is equally distributed between sessions to prevent the development of location preferences. […] All the operant alcohol sessions lasted for 30 minutes per day 5 d/week (Monday to Friday). The amount of responses and the immersion presentations were automatically recorded by the computer software. The animals were weighed daily before the alcohol self-administration sessions. Training was carried out using a modification of the conventional saccharin fading method (Samson et al., 1999) described in Alen et al., 2009 (Nicotine Tob Res. 11 (11): 1304-11). For the first 3 days of training, the animals received a 0.2% saccharin solution in the dipper to facilitate the acquisition of the lever pressure level. After that point, the following sequence in a fixed ratio 1 was used: 0.16% saccharin and 2% alcohol for three sessions, 0.12% saccharin and 4% alcohol for three sessions, 0.08% saccharin and 6% alcohol for four sessions, 0.04% saccharin and 8% alcohol for four sessions, 0.02% saccharin plus 10% alcohol, and finally 10% alcohol alone for the remaining sessions. The first investigation was relatively similar, followed by a period of at least 6 weeks with access to alcohol (10% w/v). ciglitazone (0.01, 1.5, and 20 mg/kg), OEA (0.1, 1.5, and 20 mg/kg), WY 14643 (0.1, 5, 20, and 40) mg/kg), rimonabant (0.03, 0.3, 1, and 3 mg/kg), OLHHA (0.01, 0.1, 1, and 5 mg/kg), and NF 10-360 (1 mg/kg). The medicinal products were injected 30 minutes before the self-administration session. The animals were then left for a period of 24 hours, and then 30 minutes daily. The EtOH self-administration sessions were resumed and monitored.
(§2) GraphPad Prism v5.04 (GraphPad Software, San Diego, Calif., USA). Data was represented by means±SEM. EC50 values for the inhibition of alcohol, cocaine, or oxycodone self-administration were calculated using built-in non-linear regression equations. Supplementation with alcohol and the analysis of the effects of variability (ANOVA) with repeated measures (factors: treatment and treatment). Plasma metabolic parameters, cytokines, and liver mRNA resulting from the circulation expression were analyzed by means of a two-way ANOVA (factors: treatment (vehicle/OLHHA) and access to beverage ([…]/water)), and a multiple post hoc comparison test (Bonferroni) was performed. The p-value less than 0.05 was considered to be statistically significant.

[2] = Plasma metabolite and cytokine measurements after repeated OLHHA in msP rats; type: in vivo; details: 5 mg/kg daily
Description: (§3) Voluntary alcohol intake was evaluated in a two-bottle choice test, as previously described [Stopponi et al., 2011. Biol Psychiatry. 69(7):642-]. Wistar rats or rats selected due to their alcohol preference (msP) were trained to drink water, 10% alcohol (v/v) (Wistar), or 20% alcohol (msP) for 24 hours per day until reaching a stable alcohol intake baseline. At this point, the rats were divided into different groups (n=9-10/group) to be treated with vehicle, NF 10-360 (0 or 1 mg/kg), or OLHHA (5 mg/kg). In the case of msP rats, treatment with OLHHA continued for 14 consecutive days, and the drug or vehicle was administered once a day before the start of the dark period of the light/dark cycle. Intakes were recorded daily 2, 8, and 24 hours after the administration of OLHHA. Alcohol, water, and food intake were monitored daily. The animals were sacrificed on day 14, 2 hours after the last administration of OLHHA.
(§4) The rats were sacrificed 2 hours after the last dose. Treated animals and animals treated with OLHHA were anesthetized with sodium pentobarbital (50 mg kg-1, i.p.), and blood and liver samples were taken. The blood was centrifuged (2100 g for 8 min, 4° C.) and the plasma was kept for later analysis. The liver samples were rapidly frozen in liquid N^2 and stored at −80° C. until analysis.
The following metabolites, metabolic hormones, and cytokines were measured in plasma: metabolites glucose, triglycerides, cholesterol, uric acid, urea, creatinine, aspartate transaminase (GOT), alanine transaminase (GPT), interleukin-6, tumor necrosis factor α (TNF-a). They were analyzed in an automatic Hitachi 737 analyzer (Hitachi, Tokyo, Japan) according to the manufacturer's instructions. Levels of leptin, IL-6, and TNF-α were measured using commercial rat enzyme-linked immunosorbent assay kits (Abcam, Cambridge, United Kingdom).
as §2

[3] = system: Long-Evans rats; assay: Oxycodone self-administration; type: in vivo, rat; details: FIG. 3G
Description: as §1, with “used. […]” for “used.”
Oxycodone self-administration is carried out in an operant chamber with two response levers and a 15 W house light (Med Associates Inc., Georgia, Vt., USA). […] The response of each animal has been recorded throughout the entire training and testing process. […]

[4] = system: liver mRNA of lipogenic enzymes, cytochrome c oxidase 4 and PPARα; assay: Liver mRNA expression by RT qPCR after repeated OLHHA in msP rats; type: in vivo, rat; details: 5 mg/kg daily
Description: as §3, §4
Real-time quantitative polymerase chain reaction (RT qPCR) was used to measure the relative quantification of the mRNA levels of the enzymes and proteins related to the oxidation of hand lipogenic fatty acids, as described in previous studies with OLHHA. [Decara et al., 2015. Dis Model Mech. 8(10): 1213-25]. Total mRNA was isolated using the Trizol® method according to the manufacturer's instructions (Gibco BRL Life Technologies, Baltimore, Md., USA). Resulting cDNA was used as templates for RT qPCR with an iCycler system (BioRad) using the Quanti-Test SYBR Green PCR kit (Qiagen, Hilden, Germany). The […] were provided by Sigma-Proligo (Proligo France SAS, Paris, France). Quantification was performed according to the following criteria [Decara et al., 2015. Dis Model Mech. 8(10): 1213-25]. The absolute values of each sample were normalized to observe β-actin mRNA (constitutive gene), which was used as a standard reference.
as §2, with “Supplementation with alcohol and the analysis of the effects of variability (ANOVA) with repeated measures (factors: treatment and treatment).” left out, “The p-value less than 0.05 was considered to be statistically significant.” left out

[5] = system: Marchigian Sardinian (msP) male rats; assay: Alcohol consumption in the two-bottle choice model (msP rats that prefer alcohol, 20% alcohol); type: in vivo, rat; details: 5 mg/kg daily
Description: as §1, §3

[6] = system: Wistar rats; assay: Alcohol consumption in the two-bottle choice model (Wistar rats, 10% alcohol); type: in vivo, rat; details: 1 mg/kg, P<0.05, FIG. 2A
Description: as §1
Voluntary alcohol intake was evaluated in a two-bottle choice test, as previously described [Stopponi et al., 2011. […] Intakes were recorded daily 2, 8, and 24 hours after the administration of OLHHA. Alcohol, water, and food intake were monitored daily. […]

SMILES: CCCCCCCC/C=C\CCCCCCCC(=O)NCCO [OEA, oleoylethanolamide]
EC50 for inhibition of alcohol self-administration [1]: 6.5 (IC=3.2 to 13.2) mg/kg

SMILES: CCCCCCCC/C=C\CCCCCCCC(=O)NC(C)Cc1ccc(O)c(O)c1 (stereo not drawn) [OLHHA, N-[1-(3,4-dihydroxyphenyl)propan-2-yl]oleamide]
toxicity: creatinine ([2]; msP rats, FIG. 4F): no impact
inflammation: plasma concentrations of IL-6 ([2]; msP rats, FIG. 4I): no effect
inflammation: plasma concentrations of TNF ([2]; msP rats, FIG. 4J): no effect
toxicity: transaminases ([2]; msP rats, FIGS. 4G and 4H): no impact
circulating triglycerides ([2]; msP rats, P<0.001, FIG. 4B): reduced
circulating cholesterol ([2]; msP rats, P<0.001, FIG. 4C): reduced
circulating uric acid ([2]; msP rats, P<0.01, FIG. 4D): reduced
glucose levels ([2]; rats exposed to alcohol, P<0.02, FIG. 4A): slightly reducing
maximum inhibition of oxycodone self-administration [3]: 45 % of the control responses
EC50 for reduction of oxycodone self-administration ([3]; non-linear regression, IC = confidence interval): 11.3 mg/kg
expression of mRNA of Fasn in liver ([4]; P<0.001, FIG. 4M): inhibited
expression of PPAR receptor in liver ([4]; P<0.001, FIG. 4O): increased
expression of mRNA of SCD1 in liver ([4]; P<0.01): inhibited
expression of cytochrome c oxidase 4 in liver ([4]; P<0.01, FIG. 4N): increased
total alcohol intake recorded throughout treatment ([5]; 14 days, P<0.05, FIG. 3F): reduced significantly
alcohol intake 2 hours after injection ([5]; P<0.0001, FIG. 3C): reduced alcohol intake
alcohol intake 8 h after administration ([5]; P<0.001, FIG. 3D): also observed
alcohol intake after 24 h ([5]; P=0.047, FIG. 3E): virtually disappeared
alcohol self-administration tested 24 hours after administration ([1]; 24 hours after administration, FIG. 3B): absence of effects
EC50 for inhibition of alcohol self-administration [1]: 0.2 mg/kg

SMILES: CCCCCNC(=O)c1ccc(NC(=O)c2cccc(CN3C(=O)OC[C@H]3Cc3ccccc3)c2)cc1 [NF 10-360, 3-((4-benzyl-2-oxooxazolidin-3-yl)methyl)-N-(4-(pentylcarbamoyl)phenyl)benzamide]
voluntary alcohol intake [6]: reduced alcohol intake
operant responses to a 10% ethanol solution (alcohol self-administration) ([1]; 1 mg/kg, P<0.01, FIG. 2B): reduced operant responses

SMILES: Cc1c(C(=O)NN2CCCCC2)nn(-c2ccc(Cl)cc2Cl)c1-c1ccc(Cl)cc1 [Rimonabant, rimonabant]
EC50 for inhibition of alcohol self-administration [1]: 0.5 (IC=0.5 to 1.1) mg/kg
maximum inhibition of alcohol self-administration (rank among reference ligands) ([1]; reference ligands, FIG. 1): achieved maximum inhibition

Further lines, results first:

EC50 for inhibition of alcohol self-administration [1]: 5.9 (IC=2.7 to 15.7) mg/kg
SMILES: CC1(COc2ccc(CC3SC(=O)NC3=O)cc2)CCCCC1 (stereo not drawn) [ciglitazone]

EC50 for inhibition of alcohol self-administration [1]: 23.6 (IC=11.3 to 60.9) mg/kg
SMILES: Cc1cccc(Nc2cc(Cl)nc(SCC(=O)O)n2)c1C [WY14643, pirinixic acid]
